Data: US20260007613A1, “LONG-ACTING LOW-TOXICITY NOVEL CATIONIC LIPID COMPOUNDS AND COMPOSITION THEREOF” (BEIJING YOUCAREKECHUANG PHARMACEUTICAL TECHNOLOGY CO., LTD., priority 2023, published 2026)

What was measured:
293T cells [1] = test: Fluorescent detection of Fluc-mRNA (cell transfection efficiency of LNP formulations); format: cell-based; settings: for Relative light unit (RLU): LNP formulation of Fluc-mRNA, 96-well plate, 24 hours; for Multiples (YK-305): RLU of YK-305 / RLU of the lipid of the line; for Multiples (YK-310): RLU of YK-310 / RLU of the lipid of the line; for Multiples (YK-312): RLU of YK-312 / RLU of the lipid of the line; for Ratio relative to SM-102: RLU of the lipid / RLU of SM-102, times that of SM-102; for Multiples (YK-318): RLU of YK-318 / RLU of the lipid of the line; for Multiples (YK-318) / Multiples (YK-319): Tables 5, 7, 11; for Multiples (YK-319): RLU of YK-319 / RLU of the lipid of the line
Procedure: (§1) Cell recovery and passage: 293T cells were recovered, cultured in a culture dish, and passaged to the required number of cells.
(§2) Seeding plate: The cells in the culture dish were digested and counted. Cells were spread in a 96-well plate at 10,000 cells per well and in a 12-well plate at 150,000 cells per well. Cells were cultured overnight until the cells adhered to the wall.
(§3) Cell recovery and passage: the method was the same as in Example 3.
(§4) Seeding plate: the method was the same as in Example 3.
An LNP formulation containing […] of Fluc-mRNA (the carrier components of the LNP formulation were cationic lipid, neutral lipid, structured lipid and polymer-conjugated lipid with a molar ratio of 49:10:39.5:1.5, wherein the cationic lipid was listed in Table 1) was added to the cell culture medium of a 96-well plate, and further incubated for 24 hours. The corresponding reagent was added according to the instructions of the […] Luciferase Assay Kit, and the fluorescence expression intensity of each well was detected by an IVIS fluorescence detection system. This test verified the transfection efficiencies of LNP formulations in cells, see Tables 4-7 for specific test results.

293T cells [2] = test: Cell survival rate determination (CCK-8); format: cell-based; settings: LNP formulation of Fluc-mRNA, 24 hours, CCK-8
Procedure: as §1, §2, §3, §4
An LNP formulation containing […] of Fluc-mRNA (the carrier components of the LNP formulation were cationic lipid, neutral lipid, structured lipid and polymer-conjugated lipid with a molar ratio of 49:10:39.5:1.5, wherein the cationic lipid was listed in Table 1) and the formulation of Lipofectamine 3000 were added to the cell culture medium of a 96-well plate, and further cultivated for 24 hours. 10 μL of CCK-8 solution was then added to each well, and the culture plate was incubated in an incubator for 1 hour. The absorbance at 450 nm was measured by a microplate reader.
Cell survival rate can represent the toxicity of cationic lipids to cells. The higher the cell survival rate, the lower the toxicity to cells.

[3] = Particle size and polydispersity index (PDI) of lipid nanoparticles by dynamic light scattering; format: physicochemical; settings: LNP formulation prepared from the cationic lipid, 25° C.
Procedure: The particle size and polydispersity index (PDI) were determined by dynamic light scattering using Malvern laser particle size analyzer.
10 μL of the liposome solution was weighed, diluted to 1 mL with RNase-free deionized water, and added to the sample pool. Each sample was measured in triplicate. The measurement conditions were: […] scattering angle, and 25° C.

SMILES | PDI (%) [3] [%] | Particle size (nm) [3] [nm] | Relative light unit (RLU) (293T cells [1]) | Multiples (YK-305) (293T cells [1]) | Multiples (YK-310) (293T cells [1]) | Multiples (YK-312) (293T cells [1]) | Ratio relative to SM-102 (293T cells [1]) | Cell survival rate (%) (293T cells [2]) | Multiples (YK-318) (293T cells [1]) | Multiples (YK-319) (293T cells [1])
CCCCCCCCCCOC(=O)CCCN(CCCCCC(=O)OCC(CCCCCCCC)CCCCCCCC)C[C@H](O)CN(CC)CCO [YK-308] | 13.4 | 211 | 5036582 | 5.44 | 5.12 | 4.00 | 3.14 | 70.99 |  | 
CCCCCCC(CCCCCC)CCOC(=O)CCCCCN(CCCCCC(=O)OCCC(CCCCCC)CCCCCC)C[C@H](O)CN(CC)CCO [YK-311] | 31.1 | 209 | 1963636 | 13.96 | 13.14 | 10.26 | 1.22 | 70.06 |  | 
CCCCCCCCC(CCCCCCCC)OC(=O)CCCCCCCN(CCCCCCCC(=O)OC(CCCCCCCC)CCCCCCCC)C[C@H](O)CN(CC)CCO [YK-314] | 24.6 | 235 | 547434 | 50.07 | 47.12 | 36.81 | 0.34 | 67.88 |  | 

Second part, led by results:

PDI (%) [3] [%] | Particle size (nm) [3] [nm] | SMILES | Relative light unit (RLU) (293T cells [1]) | Multiples (YK-305) (293T cells [1]) | Multiples (YK-310) (293T cells [1]) | Multiples (YK-312) (293T cells [1]) | Ratio relative to SM-102 (293T cells [1]) | Cell survival rate (%) (293T cells [2]) | Multiples (YK-318) (293T cells [1]) | Multiples (YK-319) (293T cells [1])
34.9 | 181 | CCCCCCCCCCC(CCCCCCCCCC)CCCOC(=O)CCCN(CCCC(=O)OCCCC(CCCCCCCCCC)CCCCCCCCCC)C[C@H](O)CN(CC)CCO [YK-315] | 1587188 | 17.27 | 16.25 | 12.69 | 0.99 | 71.28 |  | 
17.5 | 188 | CCCCCCCCC(CCCCCCCC)COC(=O)CCCCCN(CCCCCC(=O)OCC(CCCCCCCC)CCCCCCCC)C[C@H](O)CN(CCO)CCO [YK-316, (S)-bis(2-octyldecyl)-6,6′-(((3-(bis(2-hydroxyethyl)amino)-2-hydroxypropyl)azanediyl))dihexanoate] | 4810210 | 5.70 | 5.36 | 4.19 | 3.00 | 70.53 | 2.33 | 5.09
16.4 | 255 | CCCCCCC(CCCCCC)CCOC(=O)CCCCCN(CCCCCC(=O)OCCC(CCCCCC)CCCCCC)C[C@H](O)CN(CCO)CCO [YK-317, (S)-Bis(3-hexylnonyl)-6,6′-((3-(bis(2-hydroxyethyl)amino)-2-hydroxypropyl)azanediyl)dihexanoate] | 3605054 | 7.60 | 7.16 | 5.59 | 2.25 | 59.18 | 3.10 | 6.79
19.6 | 212 | CCCCCCCCC(CCCCCCCC)OC(=O)CCCCCCCN(CCCCCCCC(=O)OC(CCCCCCCC)CCCCCCCC)C[C@H](O)CN(CCO)CCO [YK-320, (S)-Bis(heptadecan-9-yl)-8,8′-((3-(bis(2-hydroxyethyl)amino)-2-hydroxypropyl)azanediyl)dicaprylate] | 2702966 | 10.14 | 9.54 | 7.45 | 1.69 | 71.07 | 4.14 | 9.05
